According to ChEMBL document CHEMBL1201862, “PubChem BioAssay data set” (2004):
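48-hour exposure; five concentrations; linearly interpolated endpoints. Here, GI50 denotes the concentration required for 50% inhibition of growth.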 The source made the active and inactive calls. Rule as the data show it: active = GI50 up to about 1.1 µM and inactive = higher.

Key:
Experiment in all cases: inhibition of tumour cell growth, NCI panel, 48 h
MDA-MB-435 = tested on: MDA-MB-435
A549 = tested on: A549
HCC 2998 = tested on: HCC 2998
OVCAR-4 = tested on: OVCAR-4
HT-29 = tested on: HT-29
HL-60 = tested on: HL-60
KM12 = tested on: KM12
COLO 205 = tested on: COLO 205
NCI-H226 = tested on: NCI-H226
SR = tested on: SR
SK-MEL-28 = tested on: SK-MEL-28
RXF 393 = tested on: RXF 393
MDA-N = tested on: MDA-N
TK-10 = tested on: TK-10
U-251 = tested on: U-251
HCT-15 = tested on: HCT-15
LOX IMVI = tested on: LOX IMVI
NCI-H460 = tested on: NCI-H460
SF-539 = tested on: SF-539
HOP-62 = tested on: HOP-62

CC1(O)/C(=N/O)CC2CC1C2(C)C (centres undefined)
GI50 (MDA-MB-435): > 100 µM (inactive) | GI50 (A549): > 100 µM (inactive) | GI50 (HCC 2998): > 100 µM (inactive) | GI50 (OVCAR-4): > 100 µM (inactive) | GI50 (HT-29): > 100 µM (inactive) | GI50 (HL-60): > 100 µM (inactive) | GI50 (KM12): > 100 µM (inactive) | GI50 (COLO 205): > 100 µM (inactive) | GI50 (NCI-H226): > 100 µM (inactive) | GI50 (SR): > 10 µM (inactive) | GI50 (SK-MEL-28): > 100 µM (inactive) | GI50 (RXF 393): > 100 µM (inactive) | GI50 (MDA-N): > 100 µM (inactive) | GI50 (TK-10): > 100 µM (inactive) | GI50 (U-251): > 100 µM (inactive) | GI50 (HCT-15): > 100 µM | GI50 (LOX IMVI): > 100 µM (inactive) | GI50 (NCI-H460): > 100 µM (inactive)

COc1ccc(/C=C/NC=O)cc1
GI50 (MDA-MB-435): > 100 µM (inactive) | GI50 (A549): > 100 µM (inactive) | GI50 (HCC 2998): > 100 µM (inactive) | GI50 (OVCAR-4): > 100 µM (inactive) | GI50 (HT-29): > 100 µM (inactive) | GI50 (SF-539): > 100 µM (inactive) | GI50 (HL-60): > 100 µM (inactive) | GI50 (HOP-62): > 100 µM (inactive) | GI50 (KM12): > 100 µM (inactive) | GI50 (COLO 205): > 100 µM (inactive) | GI50 (NCI-H226): > 100 µM (inactive) | GI50 (SR): > 100 µM (inactive) | GI50 (SK-MEL-28): > 100 µM (inactive) | GI50 (RXF 393): > 100 µM (inactive) | GI50 (MDA-N): > 100 µM (inactive) | GI50 (TK-10): > 100 µM (inactive) | GI50 (U-251): > 100 µM (inactive) | GI50 (HCT-15): > 100 µM | GI50 (LOX IMVI): > 100 µM (inactive) | GI50 (NCI-H460): > 100 µM (inactive)

COP(=O)(OC)/C(=C\c1cn(C(c2ccccc2)(c2ccccc2)c2ccccc2)cn1)NC(C)=O
GI50 (MDA-MB-435): > 100 µM (inactive) | GI50 (A549): 53.7 µM (inactive) | GI50 (HCC 2998): > 100 µM (inactive) | GI50 (OVCAR-4): > 100 µM (inactive) | GI50 (HT-29): 68.5 µM (inactive) | GI50 (SF-539): > 100 µM (inactive) | GI50 (HL-60): 53.8 µM (inactive) | GI50 (HOP-62): > 100 µM (inactive) | GI50 (KM12): 52.4 µM (inactive) | GI50 (COLO 205): 84.3 µM (inactive) | GI50 (NCI-H226): > 100 µM (inactive) | GI50 (SR): 81.8 µM (inactive) | GI50 (SK-MEL-28): > 100 µM (inactive) | GI50 (RXF 393): 30.6 µM (inactive) | GI50 (MDA-N): > 100 µM (inactive) | GI50 (TK-10): > 100 µM (inactive) | GI50 (U-251): > 100 µM (inactive) | GI50 (HCT-15): > 100 µM | GI50 (LOX IMVI): > 100 µM (inactive) | GI50 (NCI-H460): > 100 µM (inactive)

CCOC(=O)CCC(C(=O)OCC)n1nc2ccc(Nc3c(C)[n+]([O-])c4cc(F)c(OCC)cc4[n+]3[O-])cc2n1 (centres undefined)
GI50 (MDA-MB-435): > 100 µM (inactive) | GI50 (A549): 75.2 µM (inactive) | GI50 (HCC 2998): 35 µM (inactive) | GI50 (OVCAR-4): 47.6 µM (inactive) | GI50 (HT-29): > 100 µM (inactive) | GI50 (SF-539): 22.5 µM (inactive) | GI50 (HL-60): > 100 µM (inactive) | GI50 (HOP-62): 17.5 µM (inactive) | GI50 (KM12): > 100 µM (inactive) | GI50 (COLO 205): > 100 µM (inactive) | GI50 (NCI-H226): 36.7 µM (inactive) | GI50 (SR): > 100 µM (inactive) | GI50 (RXF 393): 11.6 µM (inactive) | GI50 (MDA-N): > 100 µM (inactive) | GI50 (TK-10): 42.7 µM (inactive) | GI50 (U-251): 23.6 µM (inactive) | GI50 (HCT-15): > 100 µM | GI50 (LOX IMVI): > 100 µM (inactive) | GI50 (NCI-H460): 29.3 µM (inactive)

CSc1nc(=O)c(C#N)c(-c2ccccc2)n1C1OC(COC(C)=O)C(OC(C)=O)C(OC(C)=O)C1OC(C)=O (centres undefined)
GI50 (MDA-MB-435): > 100 µM (inactive) | GI50 (A549): 69.3 µM (inactive) | GI50 (HCC 2998): > 100 µM (inactive) | GI50 (OVCAR-4): > 100 µM (inactive) | GI50 (HT-29): > 100 µM (inactive) | GI50 (SF-539): > 100 µM (inactive) | GI50 (HL-60): > 100 µM (inactive) | GI50 (HOP-62): > 100 µM (inactive) | GI50 (KM12): > 100 µM (inactive) | GI50 (COLO 205): > 100 µM (inactive) | GI50 (NCI-H226): > 100 µM (inactive) | GI50 (SR): > 100 µM (inactive) | GI50 (SK-MEL-28): > 100 µM (inactive) | GI50 (RXF 393): 94.4 µM (inactive) | GI50 (MDA-N): > 100 µM (inactive) | GI50 (TK-10): > 100 µM (inactive) | GI50 (U-251): > 100 µM (inactive) | GI50 (HCT-15): > 100 µM | GI50 (LOX IMVI): 98.4 µM (inactive) | GI50 (NCI-H460): 31.3 µM (inactive)

N=C(N)Nc1ccc(CC(N)NCC(=O)O)cc1 (centres undefined)
GI50 (MDA-MB-435): > 25 µM (inactive) | GI50 (A549): > 25 µM (inactive) | GI50 (HCC 2998): > 25 µM (inactive) | GI50 (OVCAR-4): > 25 µM (inactive) | GI50 (HT-29): > 25 µM (inactive) | GI50 (HL-60): > 25 µM (inactive) | GI50 (HOP-62): > 25 µM (inactive) | GI50 (KM12): > 25 µM (inactive) | GI50 (COLO 205): > 25 µM (inactive) | GI50 (NCI-H226): > 25 µM (inactive) | GI50 (SR): 20 µM (inactive) | GI50 (SK-MEL-28): > 25 µM (inactive) | GI50 (RXF 393): > 25 µM (inactive) | GI50 (MDA-N): > 25 µM (inactive) | GI50 (TK-10): > 25 µM (inactive) | GI50 (U-251): > 25 µM (inactive) | GI50 (HCT-15): > 25 µM | GI50 (LOX IMVI): > 25 µM (inactive)

Br[C@@H]1[C@H]2c3nc4ccccc4nc3[C@@H]1C[C@H]2Br
GI50 (MDA-MB-435): 91.2 µM (inactive) | GI50 (A549): 58.9 µM (inactive) | GI50 (HCC 2998): > 100 µM (inactive) | GI50 (OVCAR-4): 32.1 µM (inactive) | GI50 (HT-29): 58.6 µM (inactive) | GI50 (HL-60): 32.5 µM (inactive) | GI50 (HOP-62): > 100 µM (inactive) | GI50 (KM12): 51.4 µM (inactive) | GI50 (COLO 205): 45.7 µM (inactive) | GI50 (NCI-H226): 31.3 µM (inactive) | GI50 (SR): 48.9 µM (inactive) | GI50 (SK-MEL-28): > 100 µM (inactive) | GI50 (RXF 393): 37.7 µM (inactive) | GI50 (MDA-N): > 100 µM (inactive) | GI50 (TK-10): > 100 µM (inactive) | GI50 (U-251): 69.2 µM (inactive) | GI50 (HCT-15): 61.5 µM | GI50 (LOX IMVI): > 100 µM (inactive) | GI50 (NCI-H460): 64.6 µM (inactive)
